Reference: PubChem BioAssay (NCI)
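Step 1: Grow cells in 96-well plates. Step 2: Expose to compound for 48 hours at 5 concentrations. Step 3: Interpolate endpoints linearly; if unreached, use highest concentration. The concentration for full growth arrest is given as TGI.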

Assays:
Test in all cases: NCI tumour cell line growth inhibition, 48 h
RXF-631 renal = test system: RXF-631 renal
DLD-1 colon = test system: DLD-1 colon
XF 498 CNS = test system: XF 498 CNS
HOP-18 NSCLC = test system: HOP-18 NSCLC

COc1cc2c(cc1OC)C(CC1=C(c3ccccc3)CN3CCc4cc(OC)c(OC)cc4C3C1)NCC2 (centres undefined)
TGI (RXF-631 renal): 30.4 µM | TGI (DLD-1 colon): 34.9 µM | TGI (XF 498 CNS): 25.9 µM | TGI (HOP-18 NSCLC): 30.9 µM
